The values that follow come from US12637414B2, “Arylamides and methods of use thereof” (Genzyme Corporation, priority 2019, dated 2026).

This assay deals with T1, human Cystic Fibrosis Transmembrane Conductance Regulator (CFTR) harboring the ΔF508 mutation (Homo sapiens, UniProt P13569, DEL508-508).
T1 construct: expressed in transfected cells; host or cells: H441 carcinoma line (G418 selection)
Kind of assay: H441 cell Emax and EC50: HRP-tagged ΔF508-CFTR cell surface luminescence assay. The class given is cell-based. The settings on record: H441 cells expressing ΔF508-CFTR-HRP, 27° C., two nights; for Emax: NCI-H441, % of maximum VX809 signal; for EC50: 15-point dose-response, top 24.5 μM. The method, boiled down: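 Cells express ΔF508-CFTR carrying an HRP tag in extracellular loop 4 (CMV promoter); ~10K cells/well treated with a 15-point series from 24.5 µM and incubated two nights at 27° C. Surface CFTR read by luminescence from HRP substrate. EC50 and Emax given relative to maximal VX809 (260 µM stock) signal.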

T1 sequence (P13569 with tags, fused parts or gaps DEL508-508): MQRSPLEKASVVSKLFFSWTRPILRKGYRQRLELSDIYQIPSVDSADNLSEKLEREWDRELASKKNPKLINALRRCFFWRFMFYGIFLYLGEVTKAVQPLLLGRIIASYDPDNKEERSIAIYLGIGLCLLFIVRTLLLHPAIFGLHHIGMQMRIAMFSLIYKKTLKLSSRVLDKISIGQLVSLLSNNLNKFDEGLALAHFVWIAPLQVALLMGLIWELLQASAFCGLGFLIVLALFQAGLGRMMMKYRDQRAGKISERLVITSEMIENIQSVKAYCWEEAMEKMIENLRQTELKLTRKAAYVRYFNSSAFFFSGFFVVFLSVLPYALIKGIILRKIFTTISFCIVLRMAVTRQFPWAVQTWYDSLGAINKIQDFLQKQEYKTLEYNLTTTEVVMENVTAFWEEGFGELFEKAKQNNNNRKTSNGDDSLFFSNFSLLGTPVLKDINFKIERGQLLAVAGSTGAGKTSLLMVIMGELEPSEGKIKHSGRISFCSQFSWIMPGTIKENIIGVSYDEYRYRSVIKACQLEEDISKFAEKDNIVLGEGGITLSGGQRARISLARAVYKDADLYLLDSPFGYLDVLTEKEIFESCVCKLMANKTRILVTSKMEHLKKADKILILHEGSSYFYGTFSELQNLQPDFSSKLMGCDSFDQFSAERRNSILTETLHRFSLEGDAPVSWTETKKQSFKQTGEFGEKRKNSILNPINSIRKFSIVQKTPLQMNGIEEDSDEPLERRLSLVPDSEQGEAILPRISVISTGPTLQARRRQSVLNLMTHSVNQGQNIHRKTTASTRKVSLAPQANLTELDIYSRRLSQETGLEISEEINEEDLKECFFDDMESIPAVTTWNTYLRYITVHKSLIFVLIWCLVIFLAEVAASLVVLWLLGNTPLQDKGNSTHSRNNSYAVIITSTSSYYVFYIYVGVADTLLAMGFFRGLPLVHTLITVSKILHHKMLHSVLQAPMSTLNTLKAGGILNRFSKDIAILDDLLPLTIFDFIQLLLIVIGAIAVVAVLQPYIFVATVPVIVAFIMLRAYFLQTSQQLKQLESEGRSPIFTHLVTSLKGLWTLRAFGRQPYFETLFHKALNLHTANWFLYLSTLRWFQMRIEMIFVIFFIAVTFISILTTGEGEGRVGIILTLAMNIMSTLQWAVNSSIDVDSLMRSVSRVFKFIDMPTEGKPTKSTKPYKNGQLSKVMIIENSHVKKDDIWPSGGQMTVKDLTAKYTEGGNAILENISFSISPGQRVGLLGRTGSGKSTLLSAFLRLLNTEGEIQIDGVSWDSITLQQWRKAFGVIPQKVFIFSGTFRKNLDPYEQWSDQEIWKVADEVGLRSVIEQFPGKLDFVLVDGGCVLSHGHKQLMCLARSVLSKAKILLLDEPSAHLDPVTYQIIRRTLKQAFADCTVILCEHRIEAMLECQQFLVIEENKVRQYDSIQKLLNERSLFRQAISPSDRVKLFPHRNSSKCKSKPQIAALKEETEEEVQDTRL

`CN(Cc1ccc(C(F)(F)F)cc1)c1c(CC(=O)N[C@H](C(=O)O)C23CC4CC(CC(C4)C2)C3)ccc2ccccc12` [compound 134, (2S)-2-(1-adamantyl)-2-[[2-[1-[methyl-[[4-(trifluoromethyl)phenyl]methyl]amino]-2-naphthyl]acetyl]amino]acetic acid]: the Emax (commonly the maximal effect, on the per cent scale that the assay sets) was -17.5%. Consider `O=C(O)[C@@H](N1CN(Cc2ccc(C(F)(F)F)cc2)c2ccccc2C1=O)C12CC3CC(CC(C3)C1)C2` [compound 135, (2S)-2-(1-adamantyl)-2-[4-oxo-1-[[4-(trifluoromethyl)phenyl]methyl]-2H-quinazolin-3-yl]acetic acid], for which the Emax was -5.4%. As for `Cc1ccc2c(c1C)N(Cc1ccc(C(F)(F)F)cc1)CN([C@H](C(=O)O)C13CC4CC(CC(C4)C1)C3)C2=O` [compound 136, (2S)-2-(1-adamantyl)-2-[7,8-dimethyl-4-oxo-1-[[4-(trifluoromethyl)phenyl]methyl]-2H-quinazolin-3-yl]acetic acid], it took 1.58 µM to reach a half-maximal effect (EC50) and the Emax is 17%. For `O=C(O)[C@@H](n1c(=O)c2ccc3ccccc3c2n(Cc2ccc(C(F)(F)F)cc2)c1=O)C12CC3CC(CC(C3)C1)C2` [compound 137, (2S)-2-(1-adamantyl)-2-[2,4-dioxo-1-[[4-(trifluoromethyl)phenyl]methyl]benzo[h]quinazolin-3-yl]acetic acid], the EC50 (commonly the concentration giving half of the maximal effect) turned out to be 1.6 µM and the Emax came out at 5.3%.
